Test results reported in patent US11365174B2 (priority 2016, dated 2022).
“Also recorded” adds a separate entry of the source. Read-outs that look alike come from different tables or passages of the source.

System: Influenza A virus strain A/Puerto Rico/8/1934 H1N1 (PR8; amantadine-resistant)
Assay type: cell-based
Conditions: for antiviral activity for the PR8 strain (NA activity as read-out for viral protein synthesis/replication): L929 cells, 18-20 hours, fluorescence normalized to DMSO; for antiviral activity for the PR8 strain (NA activity as read-out for viral protein synthesis/replication) / selective activity against PR8 strain in first screen of docking hits: half-log dilutions; for potency of antiviral activity for the PR8 strain compared to amantadine or to other compounds of the class: comparison within figure; for selective activity against PR8 strain in first screen of docking hits: 1-10 uM, alongside DMSO and amantadine, normalized to DMSO

SMILES | antiviral activity for the PR8 strain (NA activity as read-out for viral protein synthesis/replication) | potency of antiviral activity for the PR8 strain compared to amantadine or to other compounds of the class | selective activity against PR8 strain in first screen of docking hits | antiviral activity for the PR8 strain (NA activity as read-out for viral protein synthesis/replication) (listed as Amantadine)
Cc1cc(C)c(S(=O)(=O)NCc2ccccc2)c(C)c1 [compound 3, N-benzyl-2,4,6-trimethylbenzenesulfonamide] | antiviral activity for the PR8 strain | more potent than amantadine | selective activity against PR8 strain | 
COc1cc(C2OCC3(CO)C(C)C=C(C)C2C3C)ccc1O (stereo not drawn) [analog 5, 4-[5-(hydroxymethyl)-2,4,9-trimethyl-7-oxabicyclo[3.3.1]non-2-en-8-yl]-2-methoxyphenol] | antiviral activity for the PR8 strain | more potent antiviral activity |  | 
O=C(CC12CC3CC(CC(C3)C1)C2)Nc1ccc([N+](=O)[O-])cc1 [compound 16, 2-(1-adamantyl)-N-(4-nitrophenyl)acetamide] | antiviral activity for the PR8 strain |  | selective activity against PR8 strain | 
CC1=CCC2CC1C(c1ccc(O)cc1)OC2(C)C (stereo not drawn) [analog 4, 4-(2,2,6-trimethyl-3-oxabicyclo[3.3.1]non-6-en-4-yl)phenol] | antiviral activity for the PR8 strain | the most potent; also recorded: more potent antiviral activity |  | 
COc1ccc(C2OCC3(CO)C(C)C=C(C)C2C3C)cc1 (stereo not drawn) [analog 2, [8-(4-methoxyphenyl)-2,4,9-trimethyl-7-oxabicyclo[3.3.1]non-2-en-5-yl]methanol] | antiviral activity for the PR8 strain | more potent antiviral activity |  | 
Cc1cc([N+](=O)[O-])ccc1NC(=O)CC12CC3CC(CC(C3)C1)C2 [analog 21, 2-(1-adamantyl)-N-(2-methyl-4-nitrophenyl)acetamide] | antiviral activity for the PR8 strain |  |  | 
NC12CC3CC(CC(C3)C1)C2 [amantadine, reference compound] | moderately inhibited PR8 replication at high enough concentrations |  |  | moderately inhibit the replication of the PR8 strain
O=[N+]([O-])c1ccc(C23CC4CC(CC(O)(C4)C2)C3)cc1 [compound 19, 3-(4-nitrophenyl)adamantan-1-ol] | antiviral activity for the PR8 strain |  | selective activity against PR8 strain | 
Cc1cccc(CNS(=O)(=O)c2c(C)cc(C)cc2C)c1 [analog 7, 2,4,6-trimethyl-N-[(3-methylphenyl)methyl]benzenesulfonamide] | potent inhibitors of NA activity and PR8 virus replication; also recorded: antiviral activity for the PR8 strain | more potent antiviral activity; also recorded: more potent than amantadine |  | 
Cc1cc([N+](=O)[O-])cc(C)c1S(=O)(=O)NCc1ccccc1Cl [JDB-0121] |  | the most potent inhibitors of NA activity and PR8 virus replication; also recorded: the greatest activity for small molecules; also recorded: the greatest biological activity in the sulfonamide series |  | 
COc1ccccc1CNS(=O)(=O)c1c(C)cc(C)cc1C [analog 31, N-[(2-methoxyphenyl)methyl]-2,4,6 trimethylbenzenesulfonamide] | potent inhibitors of NA activity and PR8 virus replication; also recorded: antiviral activity for the PR8 strain | the greatest activity |  | 
Cc1cc(C)c(S(=O)(=O)NCc2ccccc2Cl)c(C)c1 [analog 11, N-[(2-chlorophenyl)methyl]-2,4,6 trimethylbenzenesulfonamide] | potent inhibitors of NA activity and PR8 virus replication; also recorded: antiviral activity for the PR8 strain | the most potent |  | 
CC12CC3CC(C)(C1)CC(C(=O)Nc1ccc([N+](=O)[O-])cc1)(C3)C2 [analog 18, 3,5-dimethyl-N-(4-nitrophenyl)adamantane-1-carboxamide] | antiviral activity for the PR8 strain | the most potent |  | 
O=[N+]([O-])c1ccc(C23CC4CC(CC(C4)C2)C3)cc1 [analog 23, 1-(4-nitrophenyl)adamantane] | antiviral activity for the PR8 strain |  |  | 
COc1ccccc1CNS(=O)(=O)c1c(C)cc([N+](=O)[O-])cc1C [JDB-0120] |  | the most potent inhibitors of NA activity and PR8 virus replication; also recorded: the greatest activity for small molecules; also recorded: the greatest biological activity in the sulfonamide series |  | 
